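How tested: cells in 96-well plates exposed to compound for 48 hours at five concentrations. The concentration for 50% growth inhibition is given as GI50. TGI: concentration producing complete growth inhibition.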
Assays:
Assay in all cases: growth of human tumour cells (NCI), 48 h; in the data active means GI50 below about 0.43 µM; inactive means the rest
UACC-62 melanoma = tested on: UACC-62 melanoma
SK-MEL-28 melanoma = tested on: SK-MEL-28 melanoma
SNB-78 CNS = tested on: SNB-78 CNS
DMS 273 small cell lung = tested on: DMS 273 small cell lung
M14 melanoma = tested on: M14 melanoma
NCI-H226 lung = tested on: NCI-H226 lung
RXF 393 renal = tested on: RXF 393 renal
SR leukemia = tested on: SR leukemia
HOP-62 NSCLC = tested on: HOP-62 NSCLC
IGROV1 ovarian = tested on: IGROV1 ovarian
SF-539 CNS = tested on: SF-539 CNS
DLD-1 colon = tested on: DLD-1 colon
NCI-H23 lung = tested on: NCI-H23 lung
HL-60(TB) leukemia = tested on: HL-60(TB) leukemia
MOLT-4 leukemia = tested on: MOLT-4 leukemia
ACHN renal = tested on: ACHN renal
UO-31 renal = tested on: UO-31 renal
CAKI-1 renal = tested on: CAKI-1 renal
K-562 leukemia = tested on: K-562 leukemia
786-0 renal = tested on: 786-0 renal
SN12C renal = tested on: SN12C renal
OVCAR-3 ovarian = tested on: OVCAR-3 ovarian
HOP-18 NSCLC = tested on: HOP-18 NSCLC
NCI-H460 lung = tested on: NCI-H460 lung
LOX IMVI melanoma = tested on: LOX IMVI melanoma
COLO 205 colon = tested on: COLO 205 colon
EKVX NSCLC = tested on: EKVX NSCLC
TK-10 renal = tested on: TK-10 renal
SK-OV-3 ovarian = tested on: SK-OV-3 ovarian
SNB-75 CNS = tested on: SNB-75 CNS
MALME-3M melanoma = tested on: MALME-3M melanoma
DMS 114 small cell lung = tested on: DMS 114 small cell lung
HCT-15 colon = tested on: HCT-15 colon
OVCAR-8 ovarian = tested on: OVCAR-8 ovarian
HT29 colon = tested on: HT29 colon
M19-MEL melanoma = tested on: M19-MEL melanoma
SF-268 CNS = tested on: SF-268 CNS
RPMI-8226 leukemia = tested on: RPMI-8226 leukemia
CCRF-CEM leukemia = tested on: CCRF-CEM leukemia
NCI-H522 lung = tested on: NCI-H522 lung
HOP-92 NSCLC = tested on: HOP-92 NSCLC
U251 CNS = tested on: U251 CNS
OVCAR-4 ovarian = tested on: OVCAR-4 ovarian
SF-295 CNS = tested on: SF-295 CNS
OVCAR-5 ovarian = tested on: OVCAR-5 ovarian
SW-620 colon = tested on: SW-620 colon
LXFL 529 NSCLC = tested on: LXFL 529 NSCLC
A549 NSCLC = tested on: A549 NSCLC
KM12 colon = tested on: KM12 colon
HCT-116 colon = tested on: HCT-116 colon
SNB-19 CNS = tested on: SNB-19 CNS
XF 498 CNS = tested on: XF 498 CNS
HCC-2998 colon = tested on: HCC-2998 colon
KM20L2 colon = tested on: KM20L2 colon
SK-MEL-2 melanoma = tested on: SK-MEL-2 melanoma
UACC-257 melanoma = tested on: UACC-257 melanoma
A498 renal = tested on: A498 renal
SK-MEL-5 melanoma = tested on: SK-MEL-5 melanoma

Cc1cc(C)c2c(c1C)CN1CN2Cc2c(C)c(C)cc(C)c21
> 100 µM: TGI (UACC-62 melanoma) | TGI (SK-MEL-28 melanoma) | TGI (SNB-78 CNS) | TGI (DMS 273 small cell lung) | TGI (M14 melanoma) | TGI (NCI-H226 lung) | TGI (SR leukemia) | TGI (HOP-62 NSCLC) | TGI (IGROV1 ovarian) | TGI (SF-539 CNS) | TGI (DLD-1 colon) | TGI (NCI-H23 lung) | TGI (MOLT-4 leukemia) | TGI (ACHN renal) | TGI (UO-31 renal) | TGI (CAKI-1 renal) | TGI (K-562 leukemia) | TGI (786-0 renal) | TGI (SN12C renal) | TGI (OVCAR-3 ovarian) | TGI (HOP-18 NSCLC) | TGI (NCI-H460 lung) | TGI (LOX IMVI melanoma) | TGI (COLO 205 colon) | TGI (EKVX NSCLC) | TGI (TK-10 renal) | TGI (SK-OV-3 ovarian) | TGI (MALME-3M melanoma) | TGI (HCT-15 colon) | TGI (OVCAR-8 ovarian) | TGI (HT29 colon) | TGI (M19-MEL melanoma) | TGI (SF-268 CNS) | TGI (RPMI-8226 leukemia) | TGI (CCRF-CEM leukemia) | TGI (NCI-H522 lung) | TGI (HOP-92 NSCLC) | TGI (U251 CNS) | TGI (OVCAR-4 ovarian) | TGI (SF-295 CNS) | TGI (OVCAR-5 ovarian) | TGI (SW-620 colon) | TGI (LXFL 529 NSCLC) | TGI (A549 NSCLC) | TGI (KM12 colon) | TGI (HCT-116 colon)
44.1 µM: TGI (DMS 114 small cell lung)
58.1 µM: TGI (SNB-75 CNS)
93.8 µM: TGI (RXF 393 renal)
46.3 µM: TGI (HL-60(TB) leukemia)

Cc1cc2c(C)nn(Cc3ccc(Cl)cc3Cl)c2c(C#N)c1C
92.6 µM: TGI (HOP-92 NSCLC)
> 100 µM: TGI (UACC-62 melanoma) | TGI (SK-MEL-28 melanoma) | TGI (SNB-78 CNS) | TGI (DMS 273 small cell lung) | TGI (NCI-H226 lung) | TGI (RXF 393 renal) | TGI (SR leukemia) | TGI (HOP-62 NSCLC) | TGI (IGROV1 ovarian) | TGI (SF-539 CNS) | TGI (DLD-1 colon) | TGI (NCI-H23 lung) | TGI (HL-60(TB) leukemia) | TGI (MOLT-4 leukemia) | TGI (ACHN renal) | TGI (UO-31 renal) | TGI (786-0 renal) | TGI (SN12C renal) | TGI (OVCAR-3 ovarian) | TGI (HOP-18 NSCLC) | TGI (NCI-H460 lung) | TGI (LOX IMVI melanoma) | TGI (EKVX NSCLC) | TGI (TK-10 renal) | TGI (SNB-19 CNS) | TGI (SK-OV-3 ovarian) | TGI (SNB-75 CNS) | TGI (MALME-3M melanoma) | TGI (HCT-15 colon) | TGI (OVCAR-8 ovarian) | TGI (HT29 colon) | TGI (XF 498 CNS) | TGI (M19-MEL melanoma) | TGI (HCC-2998 colon) | TGI (SF-268 CNS) | TGI (RPMI-8226 leukemia) | TGI (CCRF-CEM leukemia) | TGI (U251 CNS) | TGI (SF-295 CNS) | TGI (OVCAR-5 ovarian) | TGI (KM20L2 colon) | TGI (SW-620 colon) | TGI (LXFL 529 NSCLC) | TGI (A549 NSCLC) | TGI (SK-MEL-2 melanoma) | TGI (UACC-257 melanoma) | TGI (HCT-116 colon)

CC/C(=C(/CC)c1ccc(OP(=O)([O-])[O-])cc1)c1ccc(OP(=O)([O-])[O-])cc1.N.N.N.N.[Pt+4].[Pt+4]
8.93 µM: TGI (HOP-92 NSCLC)
45.7 µM: TGI (SN12C renal)
41.9 µM: TGI (EKVX NSCLC)
11.9 µM: TGI (LOX IMVI melanoma)
16.6 µM: TGI (SF-268 CNS)
31.6 µM: TGI (LXFL 529 NSCLC)
10.1 µM: TGI (UACC-257 melanoma)
6.87 µM: TGI (M14 melanoma)
25.4 µM: TGI (UO-31 renal)
13.6 µM: TGI (HOP-62 NSCLC)
62.2 µM: TGI (SW-620 colon)
16.4 µM: TGI (HL-60(TB) leukemia)
53.6 µM: TGI (IGROV1 ovarian)
6.76 µM: TGI (RXF 393 renal)
12.2 µM: TGI (SF-295 CNS)
2.12 µM: TGI (U251 CNS)
inactive: GI50 (UACC-62 melanoma) 0.901 µM | GI50 (SK-MEL-28 melanoma) 2.07 µM | GI50 (SNB-78 CNS) 2.3 µM | GI50 (DMS 273 small cell lung) 2.17 µM | GI50 (M14 melanoma) 1.63 µM | GI50 (NCI-H226 lung) 2.31 µM | GI50 (RXF 393 renal) 2.4 µM | GI50 (SR leukemia) 1.28 µM | GI50 (HOP-62 NSCLC) 1.75 µM | GI50 (IGROV1 ovarian) 5.36 µM | GI50 (SF-539 CNS) 3.51 µM | GI50 (DLD-1 colon) 9.51 µM | GI50 (HL-60(TB) leukemia) 0.518 µM | GI50 (MOLT-4 leukemia) 1.09 µM | GI50 (ACHN renal) 2.08 µM | GI50 (UO-31 renal) 4.3 µM | GI50 (K-562 leukemia) 4.63 µM | GI50 (786-0 renal) 4.77 µM | GI50 (SN12C renal) 3.93 µM | GI50 (OVCAR-3 ovarian) 2.49 µM | GI50 (HOP-18 NSCLC) 59 µM | GI50 (NCI-H460 lung) 0.933 µM | GI50 (A498 renal) 27.5 µM | GI50 (LOX IMVI melanoma) 2.08 µM | GI50 (SK-MEL-5 melanoma) 2.22 µM | GI50 (EKVX NSCLC) 7.77 µM | GI50 (TK-10 renal) 4.73 µM | GI50 (SK-OV-3 ovarian) 3.85 µM | GI50 (SNB-75 CNS) 1.24 µM | GI50 (MALME-3M melanoma) 2.13 µM | GI50 (HCT-15 colon) 11.8 µM | GI50 (OVCAR-8 ovarian) 4.71 µM | GI50 (HT29 colon) 16.9 µM | GI50 (HCC-2998 colon) 11.6 µM | GI50 (SF-268 CNS) 1.73 µM | GI50 (RPMI-8226 leukemia) 4.19 µM | GI50 (CCRF-CEM leukemia) 0.898 µM | GI50 (HOP-92 NSCLC) 3.43 µM | GI50 (U251 CNS) 0.594 µM | GI50 (OVCAR-4 ovarian) 1.95 µM | GI50 (SF-295 CNS) 1.91 µM | GI50 (OVCAR-5 ovarian) 6.98 µM | GI50 (KM20L2 colon) 26.1 µM | GI50 (SW-620 colon) 5.19 µM | GI50 (LXFL 529 NSCLC) 14 µM | GI50 (A549 NSCLC) 2.45 µM | GI50 (SK-MEL-2 melanoma) 13.1 µM | GI50 (KM12 colon) 22 µM | GI50 (UACC-257 melanoma) 2.99 µM | GI50 (HCT-116 colon) 5.66 µM
8.43 µM: TGI (A549 NSCLC)
8.89 µM: TGI (OVCAR-3 ovarian)
19.5 µM: TGI (MOLT-4 leukemia)
4.96 µM: TGI (NCI-H226 lung)
77.8 µM: TGI (OVCAR-5 ovarian)
90.3 µM: TGI (HT29 colon)
17 µM: TGI (SK-OV-3 ovarian)
> 100 µM: TGI (SR leukemia) | TGI (DLD-1 colon) | TGI (K-562 leukemia) | TGI (786-0 renal) | TGI (HOP-18 NSCLC) | TGI (TK-10 renal) | TGI (OVCAR-8 ovarian) | TGI (RPMI-8226 leukemia) | TGI (CCRF-CEM leukemia) | TGI (KM20L2 colon) | TGI (SK-MEL-2 melanoma) | TGI (KM12 colon) | TGI (HCT-116 colon)
24 µM: TGI (HCC-2998 colon)
45.4 µM: TGI (HCT-15 colon)
5.15 µM: TGI (UACC-62 melanoma)
7.54 µM: TGI (OVCAR-4 ovarian)
10.9 µM: TGI (ACHN renal)
61.1 µM: TGI (A498 renal)
6.81 µM: TGI (SNB-78 CNS)
7.62 µM: TGI (NCI-H460 lung)
18.9 µM: TGI (DMS 273 small cell lung)
6.02 µM: TGI (MALME-3M melanoma)
6.28 µM: TGI (SK-MEL-28 melanoma)
7.4 µM: TGI (SNB-75 CNS)
9.34 µM: TGI (SK-MEL-5 melanoma)
